Data published in patent publication US8183234B2, “Tricyclic guanidine derivatives as sodium-proton exchange inhibitors” (Piramal Life Sciences Limited, priority 2004, dated 2012).
Counter-ions that a name gives are not always drawn.

Row | SMILES | melting point [°C]
1 | Cc1cc(C(=O)N=C(N)N)cc2c1Oc1c(Cl)cc(N)cc1CS2(=O)=O (as salt: sulfonic acid salt) [Example 35, N-(2-Amino-4-chloro-6-methyl-10,10-dioxo-10,11-dihydro-5-oxa-10lambda*6*-thia-dibenzo[a,d]cycloheptene-8-carbonyl)-guanidine, methane sulfonic acid salt] | 190 to 192
2 | CS(=O)(=O)O.N=C(N)NC(=O)c1ccc2c(c1)S(=O)(=O)Cc1c(F)cccc1O2 [Example 6, N-(1-Fluoro-10,10-dioxo-10,11-dihydro-5-oxa-10lambda*6*-thia-dibenzo[a,d]cycloheptene-8-carbonyl)-guanidine, methanesulfonic acid salt] | 231 to 232
3 | CS(=O)(=O)O.CS(=O)(=O)O.Cc1cc(C(=O)NC(=N)N)cc2c1Oc1c(Cl)cc(NC(=O)CN3CCCCC3)cc1CS2(=O)=O [Example 134, N-(4-Chloro-8-guanidinocarbonyl-6-methyl-10,10-dioxo-10,11-dihydro-5-oxa-10lambda*6*-thia-dibenzo[a,d]cycloheptene-2-yl)-2-piperidin-1-yl-acetamide dimesylate] | 178 to 180
4 | CS(=O)(=O)O.CS(=O)(=O)O.Cc1cc(C(=O)NC(=N)N)cc2c1Oc1c(Cl)cc(N(CCN3CCCC3)C(=O)OCC(C)C)cc1CS2(=O)=O [Example 74, (4-Chloro-8-guanidinocarbonyl-6-methyl-10,10-dioxo-10,11-dihydro-5-oxa-10lambda*6*-thia-dibenzo[a,d]cycloheptene-2-yl)-(2-pyrrolidin-1-yl-ethyl)-carbamic acid isobutylester dimesylate] | 198 to 200
5 | COc1ccccc1CNCCNc1cc(Cl)c2c(c1)CS(=O)(=O)c1cc(C(=O)NC(=N)N)cc(C)c1O2.CS(=O)(=O)O.CS(=O)(=O)O [Example 90, N-{4-Chloro-2-[2-(2-methoxy-benzylamino)-ethylamino]-6-methyl-10,10-dioxo-10,11-dihydro-5-oxa-10lambda*6*-thia-dibenzo[a,d]cycloheptene-8-carbonyl}-guanidine dimesylate] | 224 to 225
6 | Cc1cc(C(=O)N=C(N)N)cc2c1Oc1c(Cl)cc(N3CCN(Cc4ccccc4)CC3)cc1CS2(=O)=O (as salt: mesylate) [Example 118, N-[2-(4-Benzyl-piperazin-1-yl)-4-chloro-6-methyl-10,10-dioxo-10,11-dihydro-5-oxa-10lambda*6*-thia-dibenzo[a,d]cycloheptene-8-carbonyl]-guanidine dimesylate] | 280 to 285
7 | CS(=O)(=O)O.CS(=O)(=O)O.Cc1cc(C(=O)NC(=N)N)cc2c1Oc1c(Cl)cc(NC(=O)CNC3CCCC3)cc1CS2(=O)=O [Example 140, N-(4-Chloro-8-guanidinocarbonyl-6-methyl-10,10-dioxo-10,11-dihydro-5-oxa-10lambda*6*-thia-dibenzo[a,d]cyclohepten-2-yl)-2-cyclopentylamino-acetamide dimesylate] | 190 to 192
8 | CCN1CCN(c2cc(Cl)c3c(c2)CS(=O)(=O)c2cc(C(=O)NC(=N)N)cc(C)c2O3)CC1.CS(=O)(=O)O.CS(=O)(=O)O [Example 116, N-[4-Chloro-2-(4-ethyl-piperazin-1-yl)-6-methyl-10,10-dioxo-10,11-dihydro-5-oxa-10lambda*6*-thia-dibenzo[a,d]cycloheptene-8-carbonyl]-guanidine dimesylate] | 255 to 257
9 | CS(=O)(=O)O.CS(=O)(=O)O.Cc1cc(C(=O)NC(=N)N)cc2c1Oc1c(N)cccc1CS2(=O)=O [Example 159, N-[4-Amino-6-methyl-10,10-dioxo-10,11-dihydro-5-oxa-10lambda*6*-thia-dibenzo[a,d]cycloheptene-8-carbonyl)-guanidine dimesylate] | 255 to 257
10 | CS(=O)(=O)O.CS(=O)(=O)O.Cc1cc(C(=O)NC(=N)N)cc2c1Oc1c(Cl)cc(N3CCN(C(=O)c4ccc[nH]4)CC3)cc1CS2(=O)=O [Example 110, N-{4-Chloro-6-methyl-10,10-dioxo-2-[4-(1H-pyrrole-2-carbonyl)-piperazin-1-yl]-10,11-dihydro-5-oxa-10lambda*6*-thia-dibenzo[a,d]cycloheptene-8-carbonyl}-guanidine dimesylate] | 306 to 307
11 | CS(=O)(=O)O.N=C(N)NC(=O)c1ccc2c(c1)S(=O)(=O)Cc1cc(Cl)ccc1O2 [Example 3, N-(2-Chloro-10,10-dioxo-10,11-dihydro-5-oxa-10lambda*6*-thia-dibenzo[a,d]cycloheptene-8-carbonyl)-guanidine, methanesulfonic acid salt] | 280 to 282
12 | CS(=O)(=O)O.CS(=O)(=O)O.Cc1cc(C(=O)NC(=N)N)cc2c1Oc1c(Cl)cc(NC(=O)Cn3ccnc3)cc1CS2(=O)=O [Example 137, N-(4-Chloro-8-guanidinocarbonyl-6-methyl-10,10-dioxo-10,11-dihydro-5-oxa-10lambda*6*-thia-dibenzo[a,d]cyclohepten-2-yl)-2-imidazol-1-yl-acetamide dimesylate] | 252 to 254
13 | CS(=O)(=O)O.CS(=O)(=O)O.CS(=O)(=O)O.Cc1cc(C(=O)NC(=N)N)cc2c1Oc1c(Cl)cc(N3CCN(CCN4CCOCC4)CC3)cc1CS2(=O)=O [Example 121, N-{4-Chloro-6-methyl-2-[4-(2-morpholin-4-yl-ethyl)-piperazin-1-yl]-10,10-dioxo-10,11-dihydro-5-oxa-10lambda*6*-thia-dibenzo[a,d]cycloheptene-8-carbonyl}-guanidine trimesylate] | 185 to 187
14 | CS(=O)(=O)O.CS(=O)(=O)O.Cc1cc(C(=O)NC(=N)N)cc2c1Oc1c(Cl)cc(NC(=O)CNC(C)C)cc1CS2(=O)=O [Example 141, N-(4-Chloro-8-guanidinocarbonyl-6-methyl-10,10-dioxo-10,11-dihydro-5-oxa-10lambda*6*-thia-dibenzo[a,d]cyclohepten-2-yl)-2-isopropylamino-acetamide dimesylate] | 192 to 194
15 | CS(=O)(=O)O.CS(=O)(=O)O.CS(=O)(=O)O.CS(=O)(=O)O.Cc1cc(C(=O)NC(=N)N)cc2c1Oc1c(Cl)cc(N3CCN(CCN4CCNCC4)CC3)cc1CS2(=O)=O [Example 124, N-{4-Chloro-6-methyl-10,10-dioxo-2-[4-(2-piperazin-1-yl-ethyl)-piperazin-1-yl)-10,11-dihydro-5-oxa-10lambda*6*-thia-dibenzo[a,d]cycloheptene-8-carbonyl}-guanidine tetramesylate] | 182 to 184
16 | CS(=O)(=O)O.CS(=O)(=O)O.Cc1cc(C(=O)NC(=N)N)cc2c1Oc1c(Cl)cc(NC(=O)CNC3CCC3)cc1CS2(=O)=O [Example 143, N-(4-Chloro-8-guanidinocarbonyl-6-methyl-10,10-dioxo-10,11-dihydro-5-oxa-10lambda*6*-thia-dibenzo[a,d]cycloheptene-2-yl)-2-cyclobutylamino-acetamide dimesylate] | 190 to 192
17 | CNCC(=O)Nc1cc(Cl)c2c(c1)CS(=O)(=O)c1cc(C(=O)NC(=N)N)cc(C)c1O2.CS(=O)(=O)O.CS(=O)(=O)O [Example 146, N-(4-Chloro-8-guanidinocarbonyl-6-methyl-10,10-dioxo-10,11-dihydro-5-oxa-10lambda*6*-thia-dibenzo[a,d]cyclohepten-2-yl)-2-methylamino-acetamide dimesylate] | 188 to 190
18 | CS(=O)(=O)O.CS(=O)(=O)O.CS(=O)(=O)O.Cc1cc(C(=O)NC(=N)N)cc2c1Oc1c(Cl)cc(N3CCNCC3)cc1CS2(=O)=O [Example 104, N-(4-Chloro-6-methyl-10,10-dioxo-2-piperazin-1-yl-10,11-dihydro-5-oxa-10lambda*6*-thia-dibenzo[a,d]cycloheptene-8-carbonyl)-guanidine trimesylate] | 203 to 205
19 | CS(=O)(=O)O.CS(=O)(=O)O.Cc1cc(C(=O)NC(=N)N)cc2c1Oc1c(Cl)cc(NC(=O)CNC3CCCCC3)cc1CS2(=O)=O [Example 139, N-(4-Chloro-8-guanidinocarbonyl-6-methyl-10,10-dioxo-10,11-dihydro-5-oxa-10lambda*6*-thia-dibenzo[a,d]cyclohepten-2-yl)-2-cyclohexylamino-acetamide dimesylate] | 194 to 196
20 | CCCCCCCCCCN1CCN(c2cc(Cl)c3c(c2)CS(=O)(=O)c2cc(C(=O)NC(=N)N)cc(C)c2O3)CC1.CS(=O)(=O)O.CS(=O)(=O)O [Example 105, N-[4-Chloro-2-(4-decyl-piperazin-1-yl)-6-methyl-10,10-dioxo-10,11-dihydro-5-oxa-10lambda*6*-thia-dibenzo[a,d]cycloheptene-8-carbonyl]-guanidine dimesylate] | 184 to 185
21 | CS(=O)(=O)O.CS(=O)(=O)O.Cc1cc(C(=O)NC(=N)N)cc2c1Oc1c(Cl)cc(NC(=O)CN(C)C)cc1CS2(=O)=O [Example 142, N-(4-Chloro-8-guanidinocarbonyl-6-methyl-10,10-dioxo-10,11-dihydro-5-oxa-10lambda*6*-thia-dibenzo[a,d]cyclohepten-2-yl)-2-dimethylamino-acetamide dimesylate] | 190 to 191
22 | CS(=O)(=O)O.CS(=O)(=O)O.Cc1cc(C(=O)NC(=N)N)cc2c1Oc1c(Cl)cc(N3CCN(C4CC4)CC3)cc1CS2(=O)=O [Example 125, N-[4-Chloro-2-(4-cyclopropyl-piperazin-1-yl)-6-methyl-10,10-dioxo-10,11-dihydro-5-oxa-10lambda*6*-thia-dibenzo[a,d]cycloheptene-8-carbonyl]-guanidine dimesylate] | 245 to 248
23 | CS(=O)(=O)O.CS(=O)(=O)O.Cc1cc(C(=O)NC(=N)N)cc2c1Oc1c(Cl)cc(NCc3cccnc3)cc1CS2(=O)=O [Example 165, N-{4-Chloro-6-methyl-10,10-dioxo-2-[(pyridin-3-ylmethyl)-amino]-10,11-dihydro-5-oxa-10lambda*6*-thia-dibenzo[a,d]cycloheptene-8-carbonyl}-guanidine dimesylate] | 238
24 | CS(=O)(=O)O.CS(=O)(=O)O.CS(=O)(=O)O.Cc1cc(C(=O)NC(=N)N)cc2c1Oc1c(Cl)cc(N(CCN3CCCCC3)C(=O)C3CC3)cc1CS2(=O)=O [Example 95, Cyclopropanecarboxylic acid (4-chloro-8-guanidinocarbonyl-6-methyl-10,10-dioxo-10,11-dihydro-5-oxa-10lambda*6*-thia-dibenzo[a,d]cycloheptene-2-yl)-(2-piperidin-1-yl-ethyl)-amide trimesylate] | 276
